A short description of the data set: Peroxide retention after desiccation and rehydration (peroxide check strips). Format: physicochemical. As to conditions: 1 g-10 g extract in 20 ml 35% hydrogen peroxide, heated at 80° C., desiccated to 5 ml, rehydrated; colorimetric strips.

As for `Oc1ccc(C=Cc2cc(O)cc(O)c2)cc1` [resveratrol, Resveratrol], the peroxide retention capability entry is given as “relatively less ability to form stable perhydrates”.
